This note sets out measurements from ChEMBL document CHEMBL1201862, “PubChem BioAssay data set” (2004).

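All cell lines were grown in 96-well plates and treated with compound for 48 hours. GI50 marks 50% less growth.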 Activity calls are given as the source filed them. Cut-off read from the data, not from the text of the source: active = GI50 up to about 1.1 µM and inactive = higher.

Some test systems named below: SN12C; SNB-19; SK-MEL-2; OVCAR-5; MDA-MB-435; SK-OV-3; SR; HOP-92; DU-145; CAKI-1; UACC-257; K562; U-251; A549; 786-0; T47D; SF-295; CCRF-CEM; HT-29; NCI-H226.
Holding throughout (assay): NCI-60 cell line screen, 48 h

For the molecule `COC(=O)[C@]12C3=C(O)C(=O)C[C@H]1OC[C@H]2C=CC3`, the GI50 with SN12C, in the assay on SNB-19, in the assay with SK-MEL-2, with OVCAR-5, in the assay on MDA-MB-435 and in the assay with SK-OV-3 was > 100 µM (inactive) throughout. Further, the GI50 in the assay with SR was > 100 µM (inactive); in the assay on HOP-92, > 100 µM (inactive); in the assay on DU-145, > 100 µM (inactive); in the assay with CAKI-1, > 100 µM (inactive); in the assay with UACC-257, > 100 µM (inactive); in the assay with K562 it was 64 µM (inactive). The GI50 in the assay with U-251, in the assay with A549, with 786-0, in the assay on T47D and with SF-295 was > 100 µM (inactive) each time.
Regarding `N#C[C@H]1Nc2ccccc2[C@@H](O)C1O` (stereo partly specified), the GI50 with SN12C, in the assay with SK-MEL-2, with OVCAR-5, with MDA-MB-435, with CCRF-CEM and in the assay with SK-OV-3 was > 100 µM (inactive) in each case. Besides, the GI50 with SR, in the assay on HT-29, in the assay with HOP-92, in the assay with DU-145, with CAKI-1 and with UACC-257 was > 100 µM (inactive) in each case. Besides, the GI50 with K562, in the assay on U-251, in the assay on A549, with 786-0, in the assay with T47D and in the assay on SF-295 was > 100 µM (inactive) each time.
Turning to `COc1ccc2nc3cc(Cl)ccc3c(NCCNCCCNC(=O)c3cc(-c4ccccc4)nc4ccccc34)c2c1`, the GI50 in the assay on SN12C is > 100 µM (inactive); in the assay on SNB-19, > 100 µM (inactive); in the assay on OVCAR-5, > 100 µM (inactive); in the assay on MDA-MB-435 it was 30.1 µM (inactive); with NCI-H226, > 100 µM (inactive); in the assay with CCRF-CEM, > 100 µM (inactive). The GI50 is > 100 µM (inactive) in the assay on SK-OV-3; 38.3 µM (inactive) with SR; 22.6 µM (inactive) in the assay on HT-29; > 100 µM (inactive) in the assay on HOP-92; > 100 µM (inactive) in the assay on DU-145; > 100 µM (inactive) with CAKI-1. The GI50 is > 100 µM (inactive) in the assay with UACC-257; 70.8 µM (inactive) in the assay with K562; > 100 µM (inactive) in the assay with U-251; > 100 µM (inactive) in the assay on A549; > 100 µM (inactive) in the assay with 786-0; > 100 µM (inactive) in the assay on T47D. Further, the GI50 with SF-295 was > 100 µM (inactive).
On to `CC1(c2ccc(Cl)cc2)C=C(c2ccc(Cl)cc2)C(C#N)=C(C(C#N)C#N)N1.CNC` (stereo unspecified), for which the GI50 in the assay with SN12C was 18.3 µM (inactive); in the assay with SNB-19, 18.2 µM (inactive); in the assay with SK-MEL-2, 19.5 µM (inactive); in the assay with OVCAR-5, 18.1 µM (inactive); in the assay on MDA-MB-435 it was 17.5 µM (inactive); in the assay with NCI-H226, 19.8 µM (inactive). For the same molecule, the GI50 is 5.02 µM (inactive) in the assay on CCRF-CEM; 17.1 µM (inactive) with SK-OV-3; 15.7 µM (inactive) in the assay on SR; 16.6 µM (inactive) in the assay on HT-29; 16.1 µM (inactive) with DU-145; 16.9 µM (inactive) with CAKI-1. In addition, the GI50 was 17.5 µM (inactive) with UACC-257; 19.2 µM (inactive) with K562; 16.1 µM (inactive) in the assay with U-251; 19.2 µM (inactive) in the assay with A549; 13.8 µM (inactive) in the assay with 786-0; 14.2 µM (inactive) in the assay on T47D. The GI50 in the assay on SF-295 was 17.6 µM (inactive).
Consider `COc1nc(C(=O)NNC(=O)c2nc(OC)c3ccccc3c2-c2ccccc2)c(-c2ccccc2)c2ccccc12`, for which the GI50 in the assay on SN12C, in the assay with SNB-19, in the assay with SK-MEL-2, with OVCAR-5, in the assay on MDA-MB-435 and in the assay with NCI-H226 was > 100 µM (inactive) in each case. The GI50 was > 100 µM (inactive) in the assay on CCRF-CEM; > 100 µM (inactive) in the assay on SK-OV-3; 0.113 µM (active) with SR; > 100 µM (inactive) with HT-29; > 100 µM (inactive) in the assay with DU-145; > 100 µM (inactive) in the assay with CAKI-1. Besides, the GI50 in the assay with UACC-257, in the assay with K562, with U-251, in the assay with A549, with 786-0 and in the assay on T47D was > 100 µM (inactive) in each case. Further, the GI50 with SF-295 was > 100 µM (inactive).
Take `c1cn(C23C4C5C6C4C2C6C53)cn1` (stereo unspecified): the GI50 in the assay with SN12C, with SNB-19, with SK-MEL-2, in the assay with OVCAR-5, in the assay on MDA-MB-435 and in the assay with NCI-H226 was > 100 µM (inactive) in each case. The GI50 in the assay on CCRF-CEM, in the assay on SK-OV-3, in the assay with SR, in the assay on HT-29, in the assay on DU-145 and in the assay with UACC-257 was > 100 µM (inactive) each time. The GI50 in the assay on K562, with U-251, in the assay on A549, with 786-0, with T47D and with SF-295 was > 100 µM (inactive) throughout.
As for `O=[N+]([O-])c1ccc(Cl)cc1N/N=C/c1cccc2cccnc12`, the GI50 in the assay with SN12C is > 100 µM (inactive); in the assay on SNB-19, 31.3 µM (inactive); in the assay with MDA-MB-435, > 100 µM (inactive); with CCRF-CEM it was 34.8 µM (inactive); with SK-OV-3 it was > 100 µM (inactive); with SR, 15.3 µM (inactive). The GI50 in the assay with HT-29 is > 100 µM (inactive); with DU-145, > 100 µM (inactive); in the assay on CAKI-1 it was > 100 µM (inactive); with UACC-257, > 100 µM (inactive); in the assay with K562, 89.9 µM (inactive); in the assay with U-251 it was 79.1 µM (inactive). For the same molecule, the GI50 in the assay on A549, in the assay with 786-0, in the assay with T47D and in the assay on SF-295 was > 100 µM (inactive) in each case.
For `CC(C)(C)c1ccc(O)c(CN(Cc2cc(C(C)(C)C)ccc2O)C2CCCCC2)c1`, the GI50 in the assay with SN12C was 16.4 µM (inactive); with SNB-19, 18 µM (inactive); with SK-MEL-2, 18.5 µM (inactive); in the assay on OVCAR-5 it was 17.7 µM (inactive); in the assay on MDA-MB-435, 14.5 µM (inactive); with CCRF-CEM it was 27.5 µM (inactive). In addition, the GI50 was 24.4 µM (inactive) in the assay with SK-OV-3; 18.5 µM (inactive) in the assay on SR; 16.1 µM (inactive) with HT-29; 16 µM (inactive) with HOP-92; 19.5 µM (inactive) in the assay with DU-145; 26.2 µM (inactive) in the assay on CAKI-1. Besides, the GI50 is 18.3 µM (inactive) in the assay on UACC-257; 6.46 µM (inactive) in the assay on K562; 16.5 µM (inactive) in the assay with U-251; 16.2 µM (inactive) in the assay with A549; 16 µM (inactive) in the assay with 786-0; 16.4 µM (inactive) with T47D. Also, the GI50 in the assay on SF-295 was 17.7 µM (inactive).
For `OCC1=C[C@@](COCc2ccccc2)(OCc2ccccc2)[C@@H](OCc2ccccc2)[C@@H]1OCc1ccccc1`, the GI50 in the assay on SN12C is 2.86 µM (inactive); in the assay with SNB-19, 42.8 µM (inactive); with SK-MEL-2 it was 12.7 µM (inactive); in the assay on OVCAR-5, 26.3 µM (inactive); in the assay with MDA-MB-435, 6.64 µM (inactive); in the assay with NCI-H226, 15.5 µM (inactive). Besides, the GI50 is 2.81 µM (inactive) in the assay on CCRF-CEM; 12.2 µM (inactive) in the assay with SR; 12.7 µM (inactive) in the assay with HT-29; 37.6 µM (inactive) with DU-145; 14.5 µM (inactive) in the assay on CAKI-1; 22.6 µM (inactive) in the assay with UACC-257. The GI50 in the assay on K562 is 10.6 µM (inactive); in the assay with U-251, 6.59 µM (inactive); in the assay with A549, 10.5 µM (inactive); in the assay on 786-0, 20.7 µM (inactive); in the assay on T47D, 19.3 µM (inactive); in the assay on SF-295, 13.2 µM (inactive).
For the molecule `Nc1ccc(S(=O)(=O)Nc2nccs2)cc1` [SULFATHIAZOLE], the GI50 with SN12C, in the assay on SNB-19, in the assay on SK-MEL-2, in the assay with OVCAR-5, in the assay with MDA-MB-435 and with NCI-H226 was > 100 µM (inactive) throughout. For the same molecule, the GI50 is > 100 µM (inactive) in the assay with CCRF-CEM; > 100 µM (inactive) in the assay with SK-OV-3; > 100 µM (inactive) in the assay on SR; > 100 µM (inactive) in the assay on HT-29; 0.0101 µM (active) with HOP-92; > 100 µM (inactive) in the assay on DU-145. The GI50 with UACC-257, in the assay with K562, with U-251, with A549, in the assay with 786-0 and with T47D was > 100 µM (inactive) in each case. For the same molecule, the GI50 with SF-295 is > 100 µM (inactive).
Regarding `COc1cc(/C=C2\C(=O)N(c3ccc(Cl)cc3)C(c3ccccc3)S2(=O)=O)cc(OC)c1OC` (stereo unspecified), the GI50 in the assay on SN12C was > 25.8 µM (inactive); in the assay with SNB-19, 20 µM (inactive); in the assay on SK-MEL-2, 9.77 µM (inactive); in the assay on OVCAR-5 it was 9.04 µM (inactive); in the assay on MDA-MB-435, 0.394 µM (active); in the assay with NCI-H226, > 84.1 µM (inactive). Moreover, the GI50 in the assay on CCRF-CEM was 8.53 µM (inactive); in the assay on SK-OV-3, 14 µM (inactive); in the assay with HT-29, 42.5 µM (inactive); in the assay with HOP-92 it was 51.9 µM (inactive); in the assay with DU-145 it was > 100 µM (inactive); in the assay on CAKI-1 it was 38.5 µM (inactive). The GI50 with UACC-257 is 21.4 µM (inactive); with K562, 0.726 µM (active); with U-251, 29.1 µM (inactive); in the assay with A549, 17.8 µM (inactive); in the assay on 786-0 it was 39.4 µM (inactive); in the assay on T47D it was 2.77 µM (inactive). Further, in the assay with SF-295, the GI50 was 11.9 µM (inactive).
